Experimental data from patent US5780605A, “6,9-bridged erythromycin derivatives” (Abbott Laboratories, priority 1997, dated 1998).

Assays:
Assay in all cases: in vitro antibacterial activity (MIC), BHI agar dilution
Assay type in all cases: cell-based
[1] = tested on: Staphylococcus aureus ATCC 6538P; conditions: S. aureus ATCC 6538P, 35-37° C., 20 to 24 hours
Method: (§1) Representative compounds of the present invention were assayed in vitro for antibacterial activity as follows: Twelve petri dishes containing successive aqueous dilutions of the test compound mixed with 10 mL of sterilized Brain Heart Infusion (BHI) agar (Difco 0418-01-5) were prepared. Each plate was inoculated with 1:100 (or 1:10 for slow-growing strains, such as Micrococcus and Streptococcus) dilutions of up to 32 different microorganisms, using a Steers replicator block. […] In addition, a control plate, using BHI agar containing no test compound, was prepared and incubated at the beginning and end of each test.
(§2) An additional plate containing a compound having known susceptibility patterns for the organisms being tested and belonging to the same antibiotic class as the test compound was also prepared and incubated as a further control, as well as to provide test-to-test comparability.
(§3) After incubation, each plate was visually inspected. The minimum inhibitory concentration (MIC) was defined as the lowest concentration of drug yielding no growth, a slight haze, or sparsely isolated colonies on the inoculum spot as compared to the growth control.

[2] = tested on: Streptococcus Pheumoniae GYR 1171; conditions: 35-37° C., 20 to 24 hours
Method: as §1, §2, §3

[3] = tested on: Streptococcus Pheumoniae 5649; conditions: 35-37° C., 20 to 24 hours
Method: as §1, §2, §3

[4] = tested on: Staphylococcus aureus A-5278; conditions: S. aureus A-5278, 35-37° C., 20 to 24 hours
Method: as §1, §2, §3

[5] = tested on: Staphylococcus aureus 1775; conditions: S. aureus 1775, 35-37° C., 20 to 24 hours
Method: as §1, §2, §3

Escherichia coli SS = conditions: E. coli SS, 35-37° C., 20 to 24 hours
Method: as §1, §2, §3

[6] = tested on: Streptococcus agalactiae CMX 508; conditions: S. agalactiae CMX 508, 35-37° C., 20 to 24 hours
Method: as §1, §2, §3

[7] = tested on: Staphylococcus epidermidis 3519; conditions: S. epidermidis 3519, 35-37° C., 20 to 24 hours
Method: as §1, §2, §3

Escherichia coli JUHL = conditions: E. coli JUHL, 35-37° C., 20 to 24 hours
Method: as §1, §2, §3

[8] = tested on: Streptococcus bovis A-5169; conditions: S. bovis A-5169, 35-37° C., 20 to 24 hours
Method: as §1, §2, §3

[9] = tested on: Micrococcus luteus ATCC 9341; conditions: M. luteus ATCC 9341, 35-37° C., 20 to 24 hours
Method: as §1, §2, §3

[10] = tested on: Staphylococcus aureus CMX 553; conditions: S. aureus CMX 553, 35-37° C., 20 to 24 hours
Method: as §1, §2, §3

Escherichia coli DC-2 = conditions: E. coli DC-2, 35-37° C., 20 to 24 hours
Method: as §1, §2, §3

Candida albicans CCH 442 = conditions: C. albicans CCH 442, 35-37° C., 20 to 24 hours
Method: as §1, §2, §3

[11] = tested on: Streptococcus pyogenes 930; conditions: S. pyogenes 930, 35-37° C., 20 to 24 hours
Method: as §1, §2, §3

[12] = tested on: Enterococcus faecium ATCC 8043; conditions: E. faecium ATCC 8043, 35-37° C., 20 to 24 hours
Method: as §1, §2, §3

[13] = tested on: Staphylococcus aureus A5177; conditions: S. aureus A5177, 35-37° C., 20 to 24 hours
Method: as §1, §2, §3

[14] = tested on: Haemophilis Influenzae DILL AMP R; conditions: 35-37° C., 20 to 24 hours
Method: as §1, §2, §3

[15] = tested on: Streptococcus pyogenes EES61; conditions: S. pyogenes EES61, 35-37° C., 20 to 24 hours
Method: as §1, §2, §3

[16] = tested on: Streptococcus pyogenes PIU 2548; conditions: S. pyogenes PIU 2548, 35-37° C., 20 to 24 hours
Method: as §1, §2, §3

[17] = tested on: Streptococcus Pheumoniae 5979; conditions: 35-37° C., 20 to 24 hours
Method: as §1, §2, §3

[18] = tested on: Streptococcus Pheumoniae ATCC6303; conditions: 35-37° C., 20 to 24 hours
Method: as §1, §2, §3

[19] = tested on: Mycobacterium smegmafis ATCC 114; conditions: 35-37° C., 20 to 24 hours
Method: as §1, §2, §3

[20] = tested on: Micrococcus luteus ATCC 4698; conditions: M. luteus ATCC 4698, 35-37° C., 20 to 24 hours
Method: as §1, §2, §3

[21] = tested on: Staphylococcus aureus CMX 642A; conditions: S. aureus CMX 642A, 35-37° C., 20 to 24 hours
Method: as §1, §2, §3

[22] = tested on: Nocardia Asteroides ATCC9970; conditions: 35-37° C., 20 to 24 hours
Method: as §1, §2, §3

[23] = tested on: Staphylococcus aureus NCTC10649M; conditions: S. aureus NCTC10649M, 35-37° C., 20 to 24 hours
Method: as §1, §2, §3

Compound: CC[C@H]1OC(=O)[C@H](C)[C@@H](O[C@H]2C[C@@](C)(OC)[C@@H](O)[C@H](C)O2)[C@H](C)[C@@H](O[C@@H]2O[C@H](C)C[C@H](N(C)C)[C@H]2O)[C@@]2(C)C[C@@H](C)C(=NOCO2)[C@H](C)[C@H]2OC(=O)O[C@@]21C [Example 2]
- MIC (minimum inhibitory concentration) [1]: 0.39
- MIC (minimum inhibitory concentration) [2]: 0.03
- MIC (minimum inhibitory concentration) [3]: 4
- MIC (minimum inhibitory concentration) [4]: > 100
- MIC (minimum inhibitory concentration) [5]: > 100
- MIC (minimum inhibitory concentration) (Escherichia coli SS): 0.78
- MIC (minimum inhibitory concentration) [6]: 0.05
- MIC (minimum inhibitory concentration) [7]: 0.39
- MIC (minimum inhibitory concentration) (Escherichia coli JUHL): 50
- MIC (minimum inhibitory concentration) [8]: 0.02
- MIC (minimum inhibitory concentration) [9]: 0.1
- MIC (minimum inhibitory concentration) [10]: 0.78
- MIC (minimum inhibitory concentration) (Escherichia coli DC-2): 25
- MIC (minimum inhibitory concentration) (Candida albicans CCH 442): > 100
- MIC (minimum inhibitory concentration) [11]: > 100
- MIC (minimum inhibitory concentration) [12]: 0.1
- MIC (minimum inhibitory concentration) [13]: 3.1
- MIC (minimum inhibitory concentration) [14]: 2
- MIC (minimum inhibitory concentration) [15]: <= 0.005
- MIC (minimum inhibitory concentration) [16]: 3.1
- MIC (minimum inhibitory concentration) [17]: > 128
- MIC (minimum inhibitory concentration) [18]: 0.06
- MIC (minimum inhibitory concentration) [19]: 3.1
- MIC (minimum inhibitory concentration) [20]: 0.39
- MIC (minimum inhibitory concentration) [21]: 0.39
- MIC (minimum inhibitory concentration) [22]: 0.1

Compound: CC[C@H]1OC(=O)[C@H](C)C(=O)[C@H](C)[C@@H](O[C@@H]2O[C@H](C)C[C@H](N(C)C)[C@H]2O)[C@@]2(C)C[C@@H](C)C(=NOCO2)[C@H](C)[C@H]2OC(=O)O[C@@]21C [Example 3]
- MIC (minimum inhibitory concentration) [1]: 3.1
- MIC (minimum inhibitory concentration) [2]: 0.25
- MIC (minimum inhibitory concentration) [3]: 0.5
- MIC (minimum inhibitory concentration) [4]: > 100
- MIC (minimum inhibitory concentration) [5]: > 100
- MIC (minimum inhibitory concentration) (Escherichia coli SS): 0.78
- MIC (minimum inhibitory concentration) [6]: 0.78
- MIC (minimum inhibitory concentration) [7]: 3.1
- MIC (minimum inhibitory concentration) (Escherichia coli JUHL): > 100
- MIC (minimum inhibitory concentration) [8]: 0.2
- MIC (minimum inhibitory concentration) [9]: 0.39
- MIC (minimum inhibitory concentration) [10]: 3.1
- MIC (minimum inhibitory concentration) (Escherichia coli DC-2): > 100
- MIC (minimum inhibitory concentration) (Candida albicans CCH 442): > 100
- MIC (minimum inhibitory concentration) [11]: > 100
- MIC (minimum inhibitory concentration) [12]: 0.78
- MIC (minimum inhibitory concentration) [13]: 3.1
- MIC (minimum inhibitory concentration) [14]: 16
- MIC (minimum inhibitory concentration) [15]: 0.39
- MIC (minimum inhibitory concentration) [16]: 0.78
- MIC (minimum inhibitory concentration) [17]: > 128
- MIC (minimum inhibitory concentration) [23]: 3.1
- MIC (minimum inhibitory concentration) [18]: 1
- MIC (minimum inhibitory concentration) [19]: 25
- MIC (minimum inhibitory concentration) [20]: 0.78
- MIC (minimum inhibitory concentration) [21]: 3.1
- MIC (minimum inhibitory concentration) [22]: 0.78
